{"source": "ChEMBL document CHEMBL2163236", "about": "“7-Oxo-[1,4]oxazino[2,3,4-ij]quinoline-6-carboxamides as selective CB(2) cannabinoid receptor ligands: structural investigations around a novel class of full agonists” (J Med Chem, 2012)", "data": [{"biological_target": "Cannabinoid receptor 1 (Homo sapiens, UniProt P21554)", "sequence (P21554 whole entry)": "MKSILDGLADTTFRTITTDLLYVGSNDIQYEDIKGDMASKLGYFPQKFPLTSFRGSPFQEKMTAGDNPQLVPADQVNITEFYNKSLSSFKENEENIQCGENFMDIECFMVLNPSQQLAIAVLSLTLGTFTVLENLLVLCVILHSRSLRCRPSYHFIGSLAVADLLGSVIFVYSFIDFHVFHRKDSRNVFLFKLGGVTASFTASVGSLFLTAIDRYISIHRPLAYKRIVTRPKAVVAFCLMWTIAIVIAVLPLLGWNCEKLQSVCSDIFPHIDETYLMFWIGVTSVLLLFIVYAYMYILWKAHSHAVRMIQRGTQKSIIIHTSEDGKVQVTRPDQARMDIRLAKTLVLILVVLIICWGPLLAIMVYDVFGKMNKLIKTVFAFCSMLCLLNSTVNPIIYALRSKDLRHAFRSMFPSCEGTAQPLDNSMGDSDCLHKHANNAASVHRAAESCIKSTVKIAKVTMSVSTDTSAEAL", "assay": "Displacement of [3H]CP-55940 from human recombinant CB1 receptor expressed in CHO cell membranes incubated for 90 mins by scintillation counting", "units": {"Ki": "nM"}, "values": [{"smiles": "CC[C@H]1COc2cccc3c(=O)c(C(=O)NC4CCCCCC4)cn1c23", "Ki": 843}, {"smiles": "CCC1COc2cccc3c(=O)c(C(=O)Nc4ccncc4)cn1c23", "note": "(racemic)", "Ki": 1150}, {"smiles": "CC[C@@H]1COc2cccc3c(=O)c(C(=O)NC45CC6CC(CC(C6)C4)C5)cn1c23", "Ki": 197}, {"smiles": "C[C@H]1COc2cccc3c(=O)c(C(=O)NC4CCCCC4)cn1c23", "Ki": 4650}, {"smiles": "Cc1cc2c3c(c1)c(=O)c(C(=O)NC1CCCCC1)cn3C(c1ccccc1)CO2", "note": "(racemic)", "Ki": 1350}, {"smiles": "O=C(NC12CC3CC(CC(C3)C1)C2)c1cn2c3c(cccc3c1=O)OC[C@H]2Cc1ccccc1", "Ki": 105}, {"smiles": "O=C(NC1CCCC1)c1cn2c3c(cccc3c1=O)OCC2c1ccccc1", "note": "(racemic)", "Ki": 132}, {"smiles": "CC(C)C1COc2cccc3c(=O)c(C(=O)NC45CC6CC(CC(C6)C4)C5)cn1c23", "note": "(racemic)", "Ki": 323}, {"smiles": "CC1COc2cccc3c(=O)c(C(=O)NC4CCCCCC4)cn1c23", "note": "(racemic)", "Ki": "> 10000"}, {"smiles": "CC1Oc2cccc3c(=O)c(C(=O)NC4CCCCC4)cn(c23)C1c1ccccc1", "note": "(racemic)", "Ki": 3130}]}, {"biological_target": "T1, Cannabinoid receptor 2 (Homo sapiens, UniProt P34972)", "T1 sequence (P34972 whole entry)": "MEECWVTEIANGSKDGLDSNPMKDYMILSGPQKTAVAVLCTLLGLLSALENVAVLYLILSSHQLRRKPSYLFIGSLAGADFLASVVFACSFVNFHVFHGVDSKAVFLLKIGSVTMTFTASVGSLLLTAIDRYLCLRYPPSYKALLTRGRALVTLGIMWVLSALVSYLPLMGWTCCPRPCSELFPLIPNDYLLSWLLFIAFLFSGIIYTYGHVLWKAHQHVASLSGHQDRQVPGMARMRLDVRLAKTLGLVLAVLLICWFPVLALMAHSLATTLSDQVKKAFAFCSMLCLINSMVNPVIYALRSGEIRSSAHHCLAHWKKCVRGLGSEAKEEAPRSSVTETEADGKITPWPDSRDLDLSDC", "assay": "Agonist activity at human recombinant CB2 receptor expressed in CHO cell membranes assessed as inhibition of forskolin-induced cAMP accumulation", "format": "functional, cell-based", "units": {"IC50": "nM"}, "values": [{"smiles": "CC[C@H]1COc2cccc3c(=O)c(C(=O)NC4CCCCCC4)cn1c23", "IC50": 682}, {"smiles": "CCC1COc2cccc3c(=O)c(C(=O)Nc4ccncc4)cn1c23", "note": "(racemic)", "IC50": 683}, {"smiles": "CC[C@@H]1COc2cccc3c(=O)c(C(=O)NC45CC6CC(CC(C6)C4)C5)cn1c23", "IC50": 18.1}, {"smiles": "C[C@H]1COc2cccc3c(=O)c(C(=O)NC4CCCCC4)cn1c23", "IC50": 724}, {"smiles": "Cc1cc2c3c(c1)c(=O)c(C(=O)NC1CCCCC1)cn3C(c1ccccc1)CO2", "note": "(racemic)", "IC50": 110}, {"smiles": "O=C(NC12CC3CC(CC(C3)C1)C2)c1cn2c3c(cccc3c1=O)OC[C@H]2Cc1ccccc1", "IC50": 17.5}, {"smiles": "O=C(NC1CCCC1)c1cn2c3c(cccc3c1=O)OCC2c1ccccc1", "note": "(racemic)", "IC50": 472}, {"smiles": "CC(C)C1COc2cccc3c(=O)c(C(=O)NC45CC6CC(CC(C6)C4)C5)cn1c23", "note": "(racemic)", "IC50": 12.4}, {"smiles": "CC1COc2cccc3c(=O)c(C(=O)NC4CCCCCC4)cn1c23", "note": "(racemic)", "IC50": 210}, {"smiles": "CC1Oc2cccc3c(=O)c(C(=O)NC4CCCCC4)cn(c23)C1c1ccccc1", "note": "(racemic)", "IC50": 2750}]}, {"biological_target": "T1, Cannabinoid receptor 2", "assay": "Displacement of [3H]CP-55940 from human recombinant CB2 receptor expressed in CHO cell membranes incubated for 60 mins by scintillation counting", "units": {"Ki": "nM"}, "values": [{"smiles": "CC[C@H]1COc2cccc3c(=O)c(C(=O)NC4CCCCCC4)cn1c23", "Ki": 187}, {"smiles": "CCC1COc2cccc3c(=O)c(C(=O)Nc4ccncc4)cn1c23", "note": "(racemic)", "Ki": 152}, {"smiles": "CC[C@@H]1COc2cccc3c(=O)c(C(=O)NC45CC6CC(CC(C6)C4)C5)cn1c23", "Ki": 4.93}, {"smiles": "C[C@H]1COc2cccc3c(=O)c(C(=O)NC4CCCCC4)cn1c23", "Ki": 188}, {"smiles": "Cc1cc2c3c(c1)c(=O)c(C(=O)NC1CCCCC1)cn3C(c1ccccc1)CO2", "note": "(racemic)", "Ki": 18.4}, {"smiles": "O=C(NC12CC3CC(CC(C3)C1)C2)c1cn2c3c(cccc3c1=O)OC[C@H]2Cc1ccccc1", "Ki": 3.72}, {"smiles": "O=C(NC1CCCC1)c1cn2c3c(cccc3c1=O)OCC2c1ccccc1", "note": "(racemic)", "Ki": 98}, {"smiles": "CC(C)C1COc2cccc3c(=O)c(C(=O)NC45CC6CC(CC(C6)C4)C5)cn1c23", "note": "(racemic)", "Ki": 3.74}, {"smiles": "CC1COc2cccc3c(=O)c(C(=O)NC4CCCCCC4)cn1c23", "note": "(racemic)", "Ki": 38}, {"smiles": "CC1Oc2cccc3c(=O)c(C(=O)NC4CCCCC4)cn(c23)C1c1ccccc1", "note": "(racemic)", "Ki": 536}]}, {"biological_target": "T2, Cannabinoid receptor 2 (Rattus norvegicus, UniProt Q9QZN9)", "T2 sequence (Q9QZN9 whole entry)": "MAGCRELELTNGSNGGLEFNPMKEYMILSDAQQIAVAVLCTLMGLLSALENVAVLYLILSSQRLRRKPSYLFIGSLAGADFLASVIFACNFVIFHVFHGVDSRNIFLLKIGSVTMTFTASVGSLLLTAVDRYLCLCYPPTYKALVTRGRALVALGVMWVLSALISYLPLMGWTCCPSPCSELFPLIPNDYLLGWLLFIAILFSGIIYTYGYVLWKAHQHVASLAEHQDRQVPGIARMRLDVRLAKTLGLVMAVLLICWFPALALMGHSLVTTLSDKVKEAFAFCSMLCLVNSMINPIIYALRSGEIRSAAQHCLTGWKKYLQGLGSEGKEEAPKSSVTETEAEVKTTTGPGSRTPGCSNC", "assay": "Displacement of [3H]CP-55940 from CB2 receptor in Sprague-Dawley rat spleen by scintillation counting", "units": {"Ki": "nM"}, "values": [{"smiles": "CC[C@H]1COc2cccc3c(=O)c(C(=O)NC4CCCCCC4)cn1c23", "Ki": 203}, {"smiles": "CCC1COc2cccc3c(=O)c(C(=O)Nc4ccncc4)cn1c23", "note": "(racemic)", "Ki": 183}, {"smiles": "CC[C@@H]1COc2cccc3c(=O)c(C(=O)NC45CC6CC(CC(C6)C4)C5)cn1c23", "Ki": 6.17}, {"smiles": "C[C@H]1COc2cccc3c(=O)c(C(=O)NC4CCCCC4)cn1c23", "Ki": 250}, {"smiles": "Cc1cc2c3c(c1)c(=O)c(C(=O)NC1CCCCC1)cn3C(c1ccccc1)CO2", "note": "(racemic)", "Ki": 25}, {"smiles": "O=C(NC12CC3CC(CC(C3)C1)C2)c1cn2c3c(cccc3c1=O)OC[C@H]2Cc1ccccc1", "Ki": 4.65}, {"smiles": "O=C(NC1CCCC1)c1cn2c3c(cccc3c1=O)OCC2c1ccccc1", "note": "(racemic)", "Ki": 110}, {"smiles": "CC(C)C1COc2cccc3c(=O)c(C(=O)NC45CC6CC(CC(C6)C4)C5)cn1c23", "note": "(racemic)", "Ki": 4.22}, {"smiles": "CC1COc2cccc3c(=O)c(C(=O)NC4CCCCCC4)cn1c23", "note": "(racemic)", "Ki": 52}, {"smiles": "CC1Oc2cccc3c(=O)c(C(=O)NC4CCCCC4)cn(c23)C1c1ccccc1", "note": "(racemic)", "Ki": 710}]}, {"organism": "Homo sapiens", "assay": "Selectivity ratio of Ki for human recombinant CB1 receptor to KI for human recombinant CB2 receptor", "values": [{"smiles": "CC[C@H]1COc2cccc3c(=O)c(C(=O)NC4CCCCCC4)cn1c23", "Ratio Ki": 4.5}, {"smiles": "CCC1COc2cccc3c(=O)c(C(=O)Nc4ccncc4)cn1c23", "note": "(racemic)", "Ratio Ki": 8}, {"smiles": "CC[C@@H]1COc2cccc3c(=O)c(C(=O)NC45CC6CC(CC(C6)C4)C5)cn1c23", "Ratio Ki": 40}, {"smiles": "C[C@H]1COc2cccc3c(=O)c(C(=O)NC4CCCCC4)cn1c23", "Ratio Ki": 25}, {"smiles": "Cc1cc2c3c(c1)c(=O)c(C(=O)NC1CCCCC1)cn3C(c1ccccc1)CO2", "note": "(racemic)", "Ratio Ki": 73}, {"smiles": "O=C(NC12CC3CC(CC(C3)C1)C2)c1cn2c3c(cccc3c1=O)OC[C@H]2Cc1ccccc1", "Ratio Ki": 28}, {"smiles": "O=C(NC1CCCC1)c1cn2c3c(cccc3c1=O)OCC2c1ccccc1", "note": "(racemic)", "Ratio Ki": 1.35}, {"smiles": "CC(C)C1COc2cccc3c(=O)c(C(=O)NC45CC6CC(CC(C6)C4)C5)cn1c23", "note": "(racemic)", "Ratio Ki": 86}, {"smiles": "CC1COc2cccc3c(=O)c(C(=O)NC4CCCCCC4)cn1c23", "note": "(racemic)", "Ratio Ki": "> 263"}, {"smiles": "CC1Oc2cccc3c(=O)c(C(=O)NC4CCCCC4)cn(c23)C1c1ccccc1", "note": "(racemic)", "Ratio Ki": 5.83}]}, {"biological_target": "Cannabinoid receptor 1 (Rattus norvegicus, UniProt P20272)", "sequence (P20272 whole entry)": "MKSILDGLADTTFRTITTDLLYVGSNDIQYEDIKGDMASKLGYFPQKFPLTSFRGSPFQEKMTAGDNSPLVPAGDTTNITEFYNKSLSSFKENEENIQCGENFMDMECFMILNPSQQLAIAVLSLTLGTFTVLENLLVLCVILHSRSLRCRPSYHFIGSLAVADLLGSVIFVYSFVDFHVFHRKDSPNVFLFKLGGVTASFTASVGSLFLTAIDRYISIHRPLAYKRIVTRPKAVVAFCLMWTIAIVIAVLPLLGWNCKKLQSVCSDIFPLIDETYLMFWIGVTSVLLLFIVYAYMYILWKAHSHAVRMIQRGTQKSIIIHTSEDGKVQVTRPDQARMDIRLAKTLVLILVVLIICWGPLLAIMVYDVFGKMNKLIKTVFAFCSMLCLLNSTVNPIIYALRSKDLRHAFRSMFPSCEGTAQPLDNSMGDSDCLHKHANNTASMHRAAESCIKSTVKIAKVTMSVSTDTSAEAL", "assay": "Displacement of [3H]CP-55940 from CB1 receptor in Sprague-Dawley rat brain by scintillation counting", "units": {"Ki": "nM"}, "values": [{"smiles": "CC[C@H]1COc2cccc3c(=O)c(C(=O)NC4CCCCCC4)cn1c23", "Ki": 913}, {"smiles": "CCC1COc2cccc3c(=O)c(C(=O)Nc4ccncc4)cn1c23", "note": "(racemic)", "Ki": 1380}, {"smiles": "CC[C@@H]1COc2cccc3c(=O)c(C(=O)NC45CC6CC(CC(C6)C4)C5)cn1c23", "Ki": 242}, {"smiles": "C[C@H]1COc2cccc3c(=O)c(C(=O)NC4CCCCC4)cn1c23", "Ki": 5240}, {"smiles": "Cc1cc2c3c(c1)c(=O)c(C(=O)NC1CCCCC1)cn3C(c1ccccc1)CO2", "note": "(racemic)", "Ki": 1570}, {"smiles": "O=C(NC12CC3CC(CC(C3)C1)C2)c1cn2c3c(cccc3c1=O)OC[C@H]2Cc1ccccc1", "Ki": 121}, {"smiles": "O=C(NC1CCCC1)c1cn2c3c(cccc3c1=O)OCC2c1ccccc1", "note": "(racemic)", "Ki": 150}, {"smiles": "CC(C)C1COc2cccc3c(=O)c(C(=O)NC45CC6CC(CC(C6)C4)C5)cn1c23", "note": "(racemic)", "Ki": 366}, {"smiles": "CC1COc2cccc3c(=O)c(C(=O)NC4CCCCCC4)cn1c23", "note": "(racemic)", "Ki": "> 10000"}, {"smiles": "CC1Oc2cccc3c(=O)c(C(=O)NC4CCCCC4)cn(c23)C1c1ccccc1", "note": "(racemic)", "Ki": 3520}]}]}
